Data reported in patent US11925623B2 (priority 2020, dated 2024).
“Also recorded” adds a separate entry of the source.

Columns and labels:
[1] = test system: H2S; assay: Zn-agar entrapment H2S measurement in cell culture; type: cell-based
Method: To sterilized agar solution (1% w/v) was added 45 mM Zn Acetate and 4.5 mM NaOH (both prepared in sterile water). The solution was then applied to the non-adherent surface of the empty flasks and allowed to solidify. Cells were seeded in T-25 flask at 1 million cells/flask overnight. Cells were treated with sulfanegen at 0-500 μM concentrations and incubated for 6 hours. After the incubation period, the media was removed and 2 ml N,N-dimethyl-p-phenylenediamine chloride was added to the agar layer and incubated at RT for 10 mins. This was followed by addition of 400 μL of ferrous chloride and incubation for 20 minutes. The solution was then aliquoted into 96-well plate and absorbance was measured at 670 nm. The release of H2S was measured using a standard curve generated with NaSH under similar experimental conditions (incubation with NaSH was done for 1 hr).

[2] = test system: TBARS (lipid peroxidation); assay: Lipid peroxidation (TBARS) assay, i.c.v Abeta mouse model; type: in vivo, C57/BL6 mice; details: 50 and 100 mg/Kg
Method: (§1) Eight-week old Wild type C57/BL6 mice were treated i.p. with sulfanegen at 50 and 100 mg/kg dose during the entire duration of experiment. The mice were injected with intracerebroventricular (i.c.v) Aβ1-42 on day 3 after initiation of drug treatment (1 nmol/mouse). Behavioral test (T-maze) was conducted 6 days after Aβ1-42 injection, which was followed by euthanization on day 8. Biochemical analysis of the collected brain tissues was conducted using ELISA method for quantitation of Aβ1-42, and immunohistochemical analysis for GFAP (inflammatory marker). The brain tissues were also analyzed for oxidative stress markers (GSH assay, see Example 5; and protein carbonyls, see Example 6). • Groups: • Saline control N=12, (N=5 study 2; N=7 study 3) • Abeta control N=15, (N=7 study 2; N=8 study 3) • Sulfanegen, 50 mg/kg, N=7 • Sulfanegen, 100 mg/kg, N=7
The extent of lipid peroxidation, in the i.c.v Abeta mouse model (see Example 1), was correlated to the levels of thiobarbituric (TBA) acid-reactive entities (TBARS assay). Homogenized brains were exposed to TBA-trichloroacetic acid (TCA)-chloridic acid reagent (HCl; 0.37% TBA, 0.25 N HCl, and 15% TCA) (1:1:1, 2 mL) and incubated for 15 minutes at […]. […] Total protein was determined through the BCA protein assay. […]

[3] = test system: protein carbonyls; assay: Protein carbonyl assay, i.c.v Abeta mouse model; type: in vivo, C57/BL6 mice
Method: as §1
The protein carbonyl content is used as a marker of protein oxidation in the i.c.v Abeta mouse model (see Example 1). The amount of protein-hydrozone produced is quantified spectrophotometrically by Protein Carbonyl Colorimetric assay kit (Cayman Chemical, Ann Arbor, MI). 100 μl of sample was transferred into two tubes, one containing 400 μl of DNPH and the other tube containing 400 μl of 2.5 M HCl. […] The absorbance was measured at 385 nm using Spectra Max M5 microplate reader. […]

[4] = test system: SH-SY-5Y cells; assay: In vitro amyloid toxicity protection assay (CCK-8); type: cell-based
Method: SH-SY-5Y cells were seeded at a density of 20000/well in a 96-well plate and incubated overnight at 37° C. Following day, cells were treated with media according to their respective treatment group in triplicate. Vehicle-only treated cells are used as control groups. […] On day 3, Cells were incubated with media containing CCK-8 (<10%). After 3 hours of incubation, the absorbance is measured at 450 nm (reference wavelength 600 nm) using Me5 plate reader (Spectramax). The final volume in a well is kept at 100 μL CCK-8 (CK04, Dojindo labs) in this assay.

[5] = test system: IL-6; assay: IL-6 ELISA of brain tissue, i.c.v Aβ1-42 mice; type: in vivo, C57/BL6 mice
Method: as §1
(§2) IL-6 ELISA (BMS603HS, invitrogen) was used. Brain tissue samples were assayed in duplicate. Briefly, the strips provided in the kit were washed with 400 μL wash buffer (lx) twice. 50 μL of brain homogenates or standards were added to 50 μL sample diluent (PBS) in each well. […] The samples were read at 450 nm (reference wavelength 620 nm). Quantification of IL-6 in each well was conducted using the standard curve and was normalized to the weight of brain tissue.

[6] = test system: APP/PS1 transgenic mice; assay: T-maze cognitive assessment in APP/PS1 transgenic mice; type: in vivo; details: 75 mg/kg i.p. for 12 weeks; 7 and 12 month cohorts
Text: Spontaneous alternation in a T-maze was used to assess working memory abilities, based on the innate tendency of mice to alternate their choice of a goal arm based on their recall of the initial choice. The T-maze used was made of black plexiglass as per dimensions stated in Nat Protocol, 2006 [PMID: 17406205, www.nature.com/articles/nprot.2006.2]. Mice were placed in the start arm with the central divider in place so that when entering either of the goal arms the mice were not able to see the other one. The mice were allowed to move freely in the whole hall, and then, after being confined to the start arm for 30 seconds, the animal was allowed to move freely for a total of 15 arm entrees. […] The alternation percentage was calculated by dividing the number of times the animal entered alternating arms by 14 (free-choice trials). An arm entry is defined as the animal's tail tip entering the arm and repetitive arm entries as an animal re-entering the same arm three times in a row (e.g., 5 sequential entries into the same arm is 3 repetitive entries). Ratio of right and left arm entries was calculated to determine spatial preference of mice in different treatment groups. The data were analyzed using repeated measures analysis of variance (ANOVA) using Dunnett test. […]

[7] = test system: i.c.v Aβ1-42 injected nontransgenic mice; assay: T-maze spontaneous alternation in i.c.v Aβ1-42 injected mice; type: in vivo, C57/BL6 mice
Method: as §1
Spontaneous alternation in a T-maze was used to assess working memory abilities, based on the innate tendency of mice to alternate their choice of a goal arm based on their recall of the initial choice. The T-maze used was made of black plexiglass as per dimensions stated in Nat Protocol, 2006 [PMID: 17406205, www.nature.com/articles/nprot.2006.2]. Mice were placed in the start arm with the central divider in place so that when entering either of the goal arms the mice were not able to see the other one. The mice were allowed to move freely in the whole hall, and then, after being confined to the start arm for 30 seconds, the animal was allowed to move freely for a total of 15 arm entrees. […] The alternation percentage was calculated by dividing the number of times the animal entered alternating arms by 14 (free-choice trials). […] Ratio of right and left arm entries was calculated to determine spatial preference of mice in different treatment groups. The data were analyzed using repeated measures analysis of variance (ANOVA) using Dunnett test.

[8] = test system: GSH; assay: Brain glutathione (GSH) and GSSG level, i.c.v Abeta mouse model; type: in vivo, C57/BL6 mice
Method: as §1
The brain GSH and GSSG level were measured with Glutathione assay kit (Cayman Chemical, Ann Arbor, MI) using the i.c.v Abeta mouse model (see Example 1). A total of 50 μl of sample was added to each well, and 150 μl the assay cocktail (MES buffer, reconstituted cofactor mixture, enzyme mixture, water, and DTNB) were added to the wells. The absorbance was measured at 414 nm using Spectra Max M5 microplate reader. Assay range was calculated under the standard curve (0-16 μM GSH or 0-8 μM GSSG). Results were expressed as nmol/mg protein and ratio of GSH/GSSG. Total GSH levels were higher in sulfanegen treated groups at both doses 50 mg/Kg and 100 mg/Kg. […] Reduced GSH levels were slightly lower in […] but not statistically significant.
The brain tissue for biochemical analysis was rapidly homogenized in these buffers 1) TBS (20 mM Tris-HCl and 150 mM NaCl) buffer with protease inhibitors and 5 M Guanidine-HCl in 50 mM Tris-HCl buffer for Aβ1-42 ELISA assay (FIG. 11, see Example 11 below), 2) 50 mM IVIES buffer for GSH (FIG. 8C, see Example 5) and Protein Carbonyl assay (FIG. 8B, see Example 6), 3) RIPA buffer with protease inhibitors for TBARS assay (FIG. 8A, see Example 7). […]

[9] = Tolerability in i.c.v Aβ1-42 injected nontransgenic mice; type: in vivo, C57/BL6 mice
Method: as §1

[10] = Oral bioavailability: plasma levels after i.v. and p.o. dosing (LC-MS/MS); type: in vivo; details: mouse
Method: (§3) To ascertain the distribution of sulfanegen to the brain, plasma and brain samples were harvested from intraperitoneally treated animal groups and analyzed via LC-MS/MS. A saline solution of sulfanegen was injected into the mouse peritoneum at a dose of 50 mg/kg. Specifically, samples were collected at 0.25, 0.5, 1, 2, and 4 h after the drug administration. […] Samples were immediately centrifuged at 3000 rpm for 10 min at 4° C., and the separated top plasma layer was transferred into a new tube. Blood samples were stored at −80° C. until LC-MS/MS analysis. For brain samples, brain tissue was extracted from the animal and washed with copious volumes of ice-cold D-PBS for removal of blood from the sample. The brain samples were homogenized by adding 1:5 (w/v) of ice-cold D-PBS into the tube and using a mechanical homogenizer on them. Homogenized brain samples were stored at −80° C.
Similar experimental design was used for determination of oral bioavailability of sulfanegen (Table 2). Plasma samples were collected after intravenous and oral administration of the compound and concentration of sulfanegen in these samples was determined using LC-MS/MS analysis.

[11] = test system: TNFα; assay: TNFα ELISA of brain tissue, i.c.v Aβ1-42 mice; type: in vivo, C57/BL6 mice; details: 50 and 100 mg/kg i.p.; no difference between doses
Method: as §1
as §2, with “TNFα” for “IL-6”, “kit (BMS607HS,” for “(BMS603HS,”, “nm.” for “nm (reference wavelength 620 nm).”

[12] = Brain permeability: brain and plasma levels after i.p. dosing (LC-MS/MS); type: in vivo, mouse; details: 50 mg/kg i.p.
Method: as §3

O=C(O)C1(O)CSC(O)(C(=O)O)CS1 (stereo not drawn) [sulfanegen]
H2S release ([1]; 500 μM as compared to 250 μM, 6 h): decrease
H2S release ([1]; up to 250 μM at 6 h, vs vehicle control): dose-dependent increase
TBARS (lipid peroxidation) levels in brain [2]: significantly reduced
protein carbonyl levels in brain ([3]; 50 mg/kg): significantly reduced
protein carbonyl levels (legend of FIGS. 8A-8C) ([3]; 50 or 100 mg/Kg): significantly reduced
protection against Aβ1-42 reduction in cell viability ([4]; SH-SY-5Y, 20 μM Aβ1-42, CCK-8): prevented; also recorded: high protective effect
cell growth ([4]; SH-SY-5Y, with 20 μM Aβ1-42): increase in cell growth, even above the control levels
dose above which protective effect appears saturated ([4]; no difference at higher 500 μM dose): above 350 μM
brain IL-6 level ([5]; 50 mg/kg i.p.): reduction of increased IL-6 levels; also recorded: significant difference
brain IL-6 level ([5]; 100 mg/kg i.p.): Increase in IL-6
cognitive function (T-maze spontaneous alternation) [6]: improved cognitive function
cognitive behavior / cognitive impairment by T-maze ([7]; 50 and 100 mg/kg i.p.): marked improvement; also recorded: prevented cognitive impairment
T-maze alternation and repetition behavior ([7]; 50 and 100 mg/kg i.p., 6 days after Aβ1-42 injection): significant improvement
spatial bias or anxiety-like behavior in T-maze ([7]; i.p. sulfanegen-treated mice): did not exhibit spatial bias or anxiety-like behavior
total GSH levels in brain ([8]; 50 mg/Kg and 100 mg/Kg): higher
reduced GSH levels in brain ([8]; 100 mg/Kg, compared to both vehicle and amyloid beta treatment): significantly higher
GSH level as oxidative stress marker (legend of FIGS. 8A-8C) ([8]; 50 or 100 mg/Kg): significantly reduced
tolerability ([9]; 50 mg/kg i.p.): well tolerated
mice that died during the experiment ([9]; 100 mg/kg i.p.): Two mice (out of 7)
toxicity: liver and kidney enzymes ([9]; 100 mg/kg, total N=8/group): elevations in liver and kidney enzymes in 2 animals
body weights ([9]; 50 and 100 mg/kg i.p., compared to Aβ1-42-only control group): No marked decrease or increase in weights
other signs of distress ([9]; both tested doses (50 and 100 mg/kg i.p.)): No other signs of distress
AUC ([10]; iv, 10 mg/kg, read-out: AUC, plasma, i.v.): 32.6 µM·h
bioavailability ([10]; oral, p.o. 50 mg/kg vs i.v. 10 mg/kg): 15.1%
AUC ([10]; po, 50 mg/kg, read-out: AUC, plasma, p.o.): 24.6 µM·h
brain TNFα level [11]: significant decrease; also recorded: significant difference
crossing of the blood brain barrier (BBB) [12]: able to cross the blood brain barrier
AUC, brain ([12]; samples 0.25-4 h): 51.495 µM·h
Kp ([12]; mouse, brain/plasma, intraperitoneal, read-out: B/P Ratio (Brain-Plasma ratio)): 0.751
AUC ([12]; mouse, plasma, ip, samples 0.25-4 h): 68.6 µM·h
